Assay results as given in patent US20250228239A1, “MOLECULES HAVING PESTICIDAL UTILITY, AND INTERMEDIATES, COMPOSITIONS, AND PROCESSES, RELATED THERETO” (priority 2024, published 2025).

How the values were obtained:
Type in all cases: in vivo
[1] = test system: Cabbage Looper (Trichoplusia ni, TRIPNI); assay: Bioassays on Cabbage Looper (CL), 128-well diet tray assay; conditions: Trichoplusia ni; for pest or weed control at 50 µg/cm2: Cabbage Looper, Table ABC / ABC-DP rating, read-out: CL rating; for mortality at 50 µg/cm2: 168 h, second instar larvae, 50 μg/cm^2 of test molecule on artificial diet, 25° C., five to seven days, average of eight wells, read-out: CL % Control (or Mortality) rating
In short: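 Diet tray, 2nd instar, 1–5 larvae/well; 50 μg/cm^2 compound surface-applied (acetone:water 90:10), dried; 8 wells/treatment; 25° C, 14:10 L:D, 5–7 d; % mortality, mean of 8 wells.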

[2] = test system: Yellow Fever Mosquito (Aedes aegypti, AEDSAE); conditions: for YFM rating: Yellow Fever Mosquito, Table ABC / ABC-DP rating; for YFM % Control (or Mortality) rating: about 1 day-old larvae, 4000 ppm master solution diluted with 90:10 water/acetone, 15 μL per well plus 220 μL larval mixture, 3 days
In short: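 Mortality after 3 days at room temperature is the read-out, scored well by well and converted to a rating. Test molecules came from 4000 ppm stocks in DMSO, further diluted in 90:10 water/acetone, and were exposed to roughly 1-day-old larvae suspended in liver-powder water.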

[3] = test system: Beet Armyworm (Spodoptera exigua, LAPHEG); assay: Bioassays on Beet Armyworm (BAW), 128-well diet tray assay; conditions: Spodoptera exigua; for pest or weed control at 50 µg/cm2: Beet Armyworm, Table ABC / ABC-DP rating, read-out: BAW rating; for mortality at 50 µg/cm2: 168 h, second instar larvae, 50 μg/cm^2 of test molecule on artificial diet, 25° C., five to seven days, average of eight wells, read-out: BAW % Control (or Mortality) rating
In short: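 Diet-overlay assay: 50 μg/cm^2 compound applied in 90:10 acetone-water to artificial diet, allowed to dry, then infested with 1–5 L2 larvae/well; 8 wells/compound; covered, vented; 25° C., 14:10 L:D, 5–7 d; % mortality per well, averaged.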

Q: For `O=C(NNCc1ccccc1)c1cc(NC(=O)[C@H]2[C@H](c3cc(Cl)cc(Cl)c3)C2(Cl)Cl)ccc1Cl` (relative stereo) [F2545, trans-N-(3-(2-Benzylhydrazine-1-carbonyl)-4-chlorophenyl)-2,2-dichloro-3-(3,5-dichlorophenyl)cyclopropane-1-carboxamide], which pest or weed control at 50 µg/cm2 [1] is on record?
A: 50 to 100%

Q: And the YFM rating [2]?
A: A (80–100)

Q: And the pest or weed control at 50 µg/cm2 [3]?
A: 50 to 100%

Q: With `O=C(NNCc1ccc(F)cc1F)c1cc(NC(=O)[C@H]2[C@H](c3cc(Cl)cc(Cl)c3)C2(Cl)Cl)ccc1Cl` (relative stereo) [F2547, trans-2,2-dichloro-N-(4-chloro-3-(2-(2,4-difluorobenzyl)hydrazine-1-carbonyl)phenyl)-3-(3,5-dichlorophenyl)cyclopropane-1-carboxamide] as the compound, how does the pest or weed control at 50 µg/cm2 [1] read?
A: 50 to 100%

Q: And the YFM rating [2]?
A: A (80–100)

Q: What about the pest or weed control at 50 µg/cm2 [3] of the same compound?
A: 50 to 100%

Q: How did the pest or weed control at 50 µg/cm2 [1] turn out when `O=C(NNCC1CC1)c1cc(NC(=O)[C@H]2[C@H](c3cc(Cl)cc(Cl)c3)C2(Cl)Cl)ccc1Cl` (relative stereo) [F2549, trans-2,2-Dichloro-N-(4-chloro-3-(2-(cyclopropylmethyl)hydrazine-1-carbonyl)phenyl)-3-(3,5-dichlorophenyl)cyclopropane-1-carboxamide] was run?
A: 50 to 100%

Q: And the YFM rating [2]?
A: A (80–100)

Q: What about the pest or weed control at 50 µg/cm2 [3] of the same compound?
A: 50 to 100%

Q: `O=C(NNCCC(F)(F)F)c1cc(NC(=O)[C@H]2[C@H](c3cc(Cl)cc(Cl)c3)C2(Cl)Cl)ccc1Cl` (relative stereo) [F2550, trans-2,2-Dichloro-N-(4-chloro-3-(2-(3,3,3-trifluoropropyl)hydrazine-1-carbonyl)phenyl)-3-(3,5-dichlorophenyl)cyclopropane-1-carboxamide] was tested. Which pest or weed control at 50 µg/cm2 [1] did it give?
A: 50 to 100%

Q: And the YFM rating [2]?
A: B (More than 0 – Less than 80)

Q: What about the pest or weed control at 50 µg/cm2 [3] of the same compound?
A: 0 to 50%

Q: Which results are given for `COCC(C)NNC(=O)c1cc(NC(=O)[C@H]2[C@H](c3cc(Cl)cc(Cl)c3)C2(Cl)Cl)ccc1Cl` (relative stereo) [F2551, trans-2,2-Dichloro-N-(4-chloro-3-(2-(1-methoxypropan-2-yl)hydrazine-1-carbonyl)phenyl)-3-(3,5-dichlorophenyl)cyclopropane-1-carboxamide]?
A: pest or weed control at 50 µg/cm2 [1]: 50 to 100%; YFM rating [2]: A (80–100); pest or weed control at 50 µg/cm2 [3]: 50 to 100%

Q: What does the source list for `CN(NCCC(F)(F)F)C(=O)c1cc(NC(=O)[C@H]2[C@H](c3cc(Cl)cc(Cl)c3)C2(Cl)Cl)ccc1Cl` (relative stereo) [F2552, trans-2,2-Dichloro-N-(4-chloro-3-(1-methyl-2-(3,3,3-trifluoropropyl)hydrazine-1-carbonyl)phenyl)-3-(3,5-dichlorophenyl)cyclopropane-1-carboxamide]?
A: pest or weed control at 50 µg/cm2 [1]: 50 to 100%; YFM rating [2]: A (80–100); pest or weed control at 50 µg/cm2 [3]: 50 to 100%

Q: Which results are given for `O=C(NNc1ccc(F)cc1)c1cc(NC(=O)[C@H]2[C@H](c3cc(Cl)cc(Cl)c3)C2(Cl)Cl)ccc1Cl` (relative stereo) [F2553, trans-2,2-Dichloro-N-(4-chloro-3-(2-(4-fluorophenyl)hydrazine-1-carbonyl)phenyl)-3-(3,5-dichlorophenyl)cyclopropane-1-carboxamide]?
A: pest or weed control at 50 µg/cm2 [1]: 50 to 100%; YFM rating [2]: A (80–100); pest or weed control at 50 µg/cm2 [3]: 50 to 100%

Q: What does the source list for `N#Cc1ccc(NNC(=O)c2cc(NC(=O)[C@H]3[C@H](c4cc(Cl)cc(Cl)c4)C3(Cl)Cl)ccc2Cl)cc1` (relative stereo) [F2554, trans-2,2-Dichloro-N-(4-chloro-3-(2-(4-cyanophenyl)hydrazine-1-carbonyl)phenyl)-3-(3,5-dichlorophenyl)cyclopropane-1-carboxamide]?
A: pest or weed control at 50 µg/cm2 [1]: 50 to 100%; YFM rating [2]: A (80–100); pest or weed control at 50 µg/cm2 [3]: 50 to 100%

Q: For `O=C(NNc1ccc([N+](=O)[O-])cc1)c1cc(NC(=O)[C@H]2[C@H](c3cc(Cl)cc(Cl)c3)C2(Cl)Cl)ccc1Cl` (relative stereo) [F2555, trans-2,2-Dichloro-N-(4-chloro-3-(2-(4-nitrophenyl)hydrazine-1-carbonyl)phenyl)-3-(3,5-dichlorophenyl)cyclopropane-1-carboxamide], which pest or weed control at 50 µg/cm2 [1] is on record?
A: 50 to 100%

Q: What about the YFM rating [2] of the same compound?
A: A (80–100)

Q: And the pest or weed control at 50 µg/cm2 [3]?
A: 50 to 100%

Q: For `CN(NC(=O)c1cc(NC(=O)[C@H]2[C@H](c3cc(Cl)cc(Cl)c3)C2(Cl)Cl)ccc1Cl)c1ccccc1` (relative stereo) [F2557, trans-2,2-Dichloro-N-(4-chloro-3-(2-methyl-2-phenylhydrazine-1-carbonyl)phenyl)-3-(3,5-dichlorophenyl)cyclopropane-1-carboxamide], which pest or weed control at 50 µg/cm2 [1] is on record?
A: 50 to 100%

Q: What about the YFM rating [2] of the same compound?
A: A (80–100)

Q: What about the pest or weed control at 50 µg/cm2 [3] of the same compound?
A: 50 to 100%

Q: Which results are given for `O=C(NNc1cc(F)ccc1F)c1cc(NC(=O)[C@H]2[C@H](c3cc(Cl)cc(Cl)c3)C2(Cl)Cl)ccc1Cl` (relative stereo) [F2558, trans-2,2-Dichloro-N-(4-chloro-3-(2-(2,5-difluorophenyl)hydrazine-1-carbonyl)phenyl)-3-(3,5-dichlorophenyl)cyclopropane-1-carboxamide]?
A: pest or weed control at 50 µg/cm2 [1]: 50 to 100%; YFM rating [2]: A (80–100); pest or weed control at 50 µg/cm2 [3]: 50 to 100%

Q: What does the source list for `O=C(NNc1ccc(F)cc1F)c1cc(NC(=O)[C@H]2[C@H](c3cc(Cl)cc(Cl)c3)C2(Cl)Cl)ccc1Cl` (relative stereo) [F2559, trans-2,2-Dichloro-N-(4-chloro-3-(2-(2,4-difluorophenyl)hydrazine-1-carbonyl)phenyl)-3-(3,5-dichlorophenyl)cyclopropane-1-carboxamide]?
A: pest or weed control at 50 µg/cm2 [1]: 50 to 100%; YFM rating [2]: B (More than 0 – Less than 80); pest or weed control at 50 µg/cm2 [3]: 50 to 100%

Q: For `O=C(NNc1cc(Cl)ccc1Cl)c1cc(NC(=O)[C@H]2[C@H](c3cc(Cl)cc(Cl)c3)C2(Cl)Cl)ccc1Cl` (relative stereo) [F2561, trans-2,2-Dichloro-N-(4-chloro-3-(2-(2,5-dichlorophenyl)hydrazine-1-carbonyl)phenyl)-3-(3,5-dichlorophenyl)cyclopropane-1-carboxamide], which pest or weed control at 50 µg/cm2 [1] is on record?
A: 50 to 100%

Q: And the YFM rating [2]?
A: B (More than 0 – Less than 80)

Q: And the pest or weed control at 50 µg/cm2 [3]?
A: 50 to 100%

Q: Which results are given for `Cc1cc(F)ccc1NNC(=O)c1cc(NC(=O)[C@H]2[C@H](c3cc(Cl)cc(Cl)c3)C2(Cl)Cl)ccc1Cl` (relative stereo) [F2562, trans-2,2-Dichloro-N-(4-chloro-3-(2-(4-fluoro-2-methylphenyl)hydrazine-1-carbonyl)phenyl)-3-(3,5-dichlorophenyl)cyclopropane-1-carboxamide]?
A: mortality at 50 µg/cm2 [1]: 50 to 100%; pest or weed control at 50 µg/cm2 [1]: 50 to 100%; YFM rating [2]: A (80–100); YFM % Control (or Mortality) rating [2]: A (80–100); mortality at 50 µg/cm2 [3]: 50 to 100%; pest or weed control at 50 µg/cm2 [3]: 50 to 100%

Q: How did the mortality at 50 µg/cm2 [1] turn out when `COc1ccc(NNC(=O)c2cc(NC(=O)[C@H]3[C@H](c4cc(Cl)cc(Cl)c4)C3(Cl)Cl)ccc2Cl)cc1` (relative stereo) [F2563, trans-2,2-Dichloro-N-(4-chloro-3-(2-(4-methoxyphenyl)hydrazine-1-carbonyl)phenyl)-3-(3,5-dichlorophenyl)cyclopropane-1-carboxamide] was run?
A: 50 to 100%

Q: And the pest or weed control at 50 µg/cm2 [1]?
A: 50 to 100%

Q: And the YFM rating [2]?
A: B (More than 0 – Less than 80)

Q: And the “YFM % Control (or Mortality) rating” value [2]?
A: B (More than 0 – Less than 80)

Q: What about the mortality at 50 µg/cm2 [3] of the same compound?
A: 50 to 100%

Q: What about the pest or weed control at 50 µg/cm2 [3] of the same compound?
A: 50 to 100%
